Data: US9758485B2, “Compounds for controlling arthropods” (priority 2013, dated 2017)

Tests used:
[1] = logP determination by HPLC on a reversed-phase column (C18), EEC Directive 79/831 Annex V.A8; assay type: physicochemical; settings: for log P: HPLC-MS, reversed-phase column (C18); for logP^a): HPLC-MS method a), Table I-T3
[2] = test system: Ctenocephalides felis; test: Ctenocephalides felis - in vitro contact tests with adult cat fleas; assay type: in vivo; settings: application rate 5 μg/cm^2 (=500 g/ha), after 48 h (dead or moribund)
Procedure: Ctenocephalides felis—In Vitro Contact Tests with Adult Cat Fleas
For the coating of the test tubes, 9 mg of active ingredient are first dissolved in 1 ml of acetone p.a. and then diluted to the desired concentration with acetone p.a. 250 μl of the solution are distributed homogeneously on the inner walls and base of a 25 ml test tube by turning and rocking on an orbital shaker (rocking rotation at 30 rpm for 2 h). With 900 ppm active ingredient solution and internal surface area 44.7 cm^2, given homogeneous distribution, an area-based dose of 5 μg/cm^2 is achieved.
After the solvent has evaporated off, the tubes are populated with 5-10 adult cat fleas (Ctenocephalides felis), sealed with a perforated plastic lid and incubated in a horizontal position at room temperature and ambient humidity. After 48 h, efficacy is determined. To this end, the test tubes are stood upright and the fleas are knocked to the base of the tube. Fleas which remain motionless at the base or move in an uncoordinated manner are considered to be dead or moribund.
100% efficacy means that all the fleas were dead or moribund. 0% efficacy means that no fleas were harmed.

[3] = test system: Boophilus microplus; test: Boophilus microplus - injection test; assay type: in vivo; settings: application rate 20 μg/animal; injected into engorged adult female ticks; laying of fertile eggs, after 7 days
Procedure: Boophilus microplus—Injection Test
(§1) Solvent: dimethyl sulphoxide
To produce an appropriate active ingredient formulation, 10 mg of active ingredient are mixed with 0.5 ml of solvent and the concentrate is diluted with solvent to the desired concentration.
1 μl of the active ingredient solution is injected into the abdomen of 5 engorged adult female cattle ticks (Boophilus microplus). The animals are transferred into dishes and kept in a climate-controlled room.
Efficacy is assessed after 7 days by laying of fertile eggs. Eggs which are not visibly fertile are stored in a climate-controlled cabinet until the larvae hatch after about 42 days. An efficacy of 100% means that none of the ticks has laid any fertile eggs; 0% means that all the eggs are fertile.

[4] = test system: Ctenocephalides felis; test: Ctenocephalides felis - oral test; assay type: in vivo; settings: application rate 100 ppm in citrated cattle blood; adult fleas; kill after 2 days
Procedure: Ctenocephalides felis—Oral Test
as §1
For the purpose of producing an appropriate active ingredient formulation, 10 mg of active ingredient are mixed with 0.5 ml of dimethyl sulphoxide. Dilution with citrated cattle blood gives the desired concentration.
About 20 unfed adult cat fleas (Ctenocephalides felis) are placed into a chamber which is closed at the top and bottom with gauze. A metal cylinder whose bottom end is closed with parafilm is placed onto the chamber. The cylinder contains the blood/active ingredient preparation, which can be imbibed by the fleas through the parafilm membrane.
After 2 days, the kill in % is determined. 100% means that all of the fleas have been killed; 0% means that none of the fleas have been killed.

[5] = test system: Lucilia cuprina; test: Lucilia cuprina test; assay type: in vivo; settings: application rate 100 ppm; L1 larvae in minced horsemeat; kill after 2 days
Procedure: as §1
(§2) To produce an appropriate active ingredient formulation, 10 mg of active ingredient are mixed with 0.5 ml of dimethyl sulphoxide, and the concentrate is diluted with water to the desired concentration.
About 20 L1 larvae of the Australian sheep blowfly (Lucilia cuprina) are transferred into a test vessel containing minced horsemeat and the active ingredient preparation of the desired concentration.
After 2 days, the kill in % is determined. 100% means that all the larvae have been killed; 0% means that none of the larvae have been killed.

[6] = test system: Musca domestica; test: Musca domestica test; assay type: in vivo; settings: adult houseflies, kill after 2 days
Procedure: as §1, §2
Vessels containing a sponge treated with sugar solution and the active ingredient formulation of the desired concentration are populated with 10 adult houseflies (Musca domestica).
After 2 days, the kill in % is determined. 100% means that all of the flies have been killed; 0% means that none of the flies have been killed.

SMILES | log P [1] | efficacy [2] [%] | efficacy [3] [%] | efficacy [4] [%] | logP^a) [1] | efficacy [5] [%] | efficacy ([6]; application rate 100 ppm) [%] | efficacy ([6]; application rate 4 ppm) [%]
Cc1ncc(-c2cnn(-c3c(Cl)cc(C(F)(F)F)cc3Cl)c2)cc1C(=O)N(C)C1(C#N)CC1 [I-T3-132] | 2.9 | 100 | 100 | 100 | – | – | – | –
N#CC1(CNC(=O)c2cc(-c3cnn(-c4c(Cl)cc(C(F)(C(F)(F)F)C(F)(F)F)cc4C(F)(F)F)c3)ccc2Cl)CC1 [I-T3-199] | – | 100 | – | – | – | – | – | –
O=C(NC1CC1)c1c(Cl)ccc(-c2cnn(-c3c(Cl)cc(C(F)(C(F)(F)F)C(F)(F)F)cc3Cl)c2)c1F [I-T3-73] | – | – | 100 | 100 | 4.5 | 100 | 100 | –
Cc1cc(C(F)(C(F)(F)F)C(F)(F)F)cc(C)c1-n1cc(-c2ccc(Cl)c(C(=O)NC3(C(F)(F)F)CC3)c2)cn1 [I-T3-5] | – | – | 100 | 100 | 4.6 | 100 | 100 | –
COc1ncc(-c2cnn(-c3c(C)cc(C(F)(C(F)(F)F)C(F)(F)F)cc3C)c2)cc1C(=O)N(C)C1CC1 [I-T3-144] | 4.4 | – | 100 | 90 | – | 100 | 100 | –
N#CC1(NC(=O)c2cc(-c3cnn(-c4ccc(C(F)(C(F)(F)F)C(F)(F)F)cc4OC(F)(F)F)c3)ccc2Cl)CC1 [I-T3-34] | – | – | 100 | 100 | 4.6 | 100 | 100 | –
N#CC1(NC(=O)c2cc(-c3cnn(-c4ccc(OC(F)(F)F)cc4Cl)c3)ccc2Cl)CC1 [I-T3-89] | – | – | 100 | 100 | 3.5 | 100 | 100 | –
Cc1cc(C(F)(C(F)(F)F)C(F)(F)F)cc(C)c1-n1cc(-c2cncc(C(=O)NC3(C#N)CC3)c2)cn1 [I-T3-8] | – | – | 100 | 100 | 3.4 | 100 | 100 | –
O=C(NC1CC1)c1cc(-c2cnn(-c3ncc(C(F)(F)F)cc3C(F)(F)F)c2)ccc1Cl [I-T3-150] | 3.6 | – | 100 | 100 | – | 100 | 100 | –
Cc1cc(C(F)(C(F)(F)F)C(F)(F)F)cc(C)c1-n1cc(-c2ccc(Cl)c(C(=O)NCC(F)(F)F)c2)cn1 [I-T3-2] | – | – | 100 | 100 | 4.7 | 100 | 100 | –
Cc1cc(C(F)(C(F)(F)F)C(F)(F)F)cc(C)c1-n1cc(-c2ccc(Cl)c(C(=O)NC3CSC3)c2)cn1 [I-T3-4] | – | – | 100 | 100 | 4.7 | 100 | 100 | –
O=C(NC1CC1)c1cc(-c2cnn(-c3ccc(C(F)(C(F)(F)F)C(F)(F)F)cc3OC(F)(F)F)c2)ccc1Cl [I-T3-35] | – | – | 100 | 100 | 4.7 | 100 | – | 80
CCc1cc(C(F)(C(F)(F)F)C(F)(F)F)cc(C)c1-n1cc(-c2cncc(C(=O)NC3CC3)c2)cn1 [I-T3-77] | – | – | 100 | 100 | 3.4 | 100 | 100 | –
CCc1cc(C(F)(C(F)(F)F)C(F)(F)F)cc(C)c1-n1cc(-c2ccc(Cl)c(C(=O)NC3CC3)c2F)cn1 [I-T3-68] | – | – | 100 | 100 | 4.8 | 100 | 80 | –
CCc1cc(C(F)(C(F)(F)F)C(F)(F)F)cc(C)c1-n1cc(-c2ccc(Cl)c(C(=O)NC3(C#N)CC3)c2F)cn1 [I-T3-66] | – | – | 100 | 100 | 4.6 | 100 | 80 | –
Cc1cc(C(F)(C(F)(F)F)C(F)(F)F)cc(C)c1-n1cc(-c2cnc(C3CC3)c(C(=O)NC3(C#N)CC3)c2)cn1 [I-T3-139] | 4.1 | – | 100 | 100 | – | 100 | 90 | –
Cc1ncc(-c2cnn(-c3c(Cl)cc(C(F)(F)F)cc3Cl)c2)cc1C(=O)N(C)C1CC1 [I-T3-128] | 2.8 | 100 | 100 | 100 | – | – | – | –
Cc1cc(C(F)(C(F)(F)F)C(F)(F)F)cc(C)c1-n1cc(-c2ccc(Cl)c(C(=O)NC3(C#N)CC3)c2F)cn1 [I-T3-65] | – | – | 100 | 100 | 4.3 | 100 | 100 | –
O=C(NCC(F)(F)F)c1cc(-c2cnn(-c3c(Cl)cc(C(F)(C(F)(F)F)C(F)(F)F)cc3C(F)(F)F)c2)ccc1Cl [I-T3-58] | – | – | 100 | 100 | 4.7 | 100 | 100 | –
COCCNc1ncc(-c2cnn(-c3c(Cl)cc(C(F)(C(F)(F)F)C(F)(F)F)cc3Cl)c2)cc1C(=O)NC1CC1 [I-T3-138] | 4.1 | 100 | – | – | – | – | – | –
CCNC(=O)c1cc(-c2cnn(-c3c(Cl)cc(C(F)(F)F)cc3Cl)c2)cnc1C [I-T3-147] | 4.0 | 100 | – | – | – | – | – | –
N#CC1(NC(=O)c2cc(-c3cnn(-c4c(F)cc(C(F)(C(F)(F)F)C(F)(F)F)cc4F)c3)ccc2Cl)CC1 [I-T3-62] | – | – | 100 | 100 | 3.9 | 100 | 100 | –
CCc1cc(C(F)(C(F)(F)F)C(F)(F)F)ccc1-n1cc(-c2cncc(C(=O)NC3CC3)c2)cn1 [I-T3-79] | – | – | 100 | 95 | 3.3 | 80 | 80 | –
N#CC1(NC(=O)c2cc(-c3cnn(-c4ncc(C(F)(C(F)(F)F)C(F)(F)F)cc4Cl)c3)ccc2Cl)CC1 [I-T3-151] | 4.0 | – | 100 | 100 | – | 100 | 100 | –
CCc1cc(C(F)(C(F)(F)F)C(F)(F)F)cc(C)c1-n1cc(-c2cncc(C(=O)NC3(C#N)CC3)c2)cn1 [I-T3-76] | – | – | 100 | 100 | 3.4 | 90 | 90 | –
CCc1cc(C(F)(C(F)(F)F)C(F)(F)F)cc(C)c1-n1cc(-c2ccc(Cl)c(C(=O)NCC(F)(F)F)c2)cn1 [I-T3-45] | – | – | 100 | 95 | 5.0 | 100 | – | –
O=C(NCC(F)(F)F)c1cc(-c2cnn(-c3ccc(C(F)(C(F)(F)F)C(F)(F)F)cc3OC(F)(F)F)c2)ccc1Cl [I-T3-36] | – | – | 100 | 80 | 5.0 | 100 | – | –
N#CC1(NC(=O)c2cc(-c3cnn(-c4ncc(C(F)(F)F)cc4C(F)(F)F)c3)ccc2Cl)CC1 [I-T3-149] | 3.5 | – | 100 | 100 | – | 100 | 100 | –
CCc1cc(C(F)(F)C(F)(F)F)cc(C)c1-n1cc(-c2ccc(Cl)c(C(=O)NCC(F)(F)F)c2)cn1 [I-T3-82] | – | – | 100 | 95 | 4.0 | 100 | – | –
Cc1cc(C(F)(C(F)(F)F)C(F)(F)F)cc(C)c1-n1cc(-c2cc(C(=O)NC3CC3)cc(C(F)(F)F)c2)cn1 [I-T3-15] | – | – | 100 | 90 | 4.9 | 100 | – | –
